Measured values published in ChEMBL document CHEMBL5370616, “Novel Nitric Oxide Donor-Azole Conjugation Strategy for Efficient Treatment of Cryptococcus neoformans Infections” (J Med Chem, 2023).
Converted amounts (≈) assume the structure as drawn. The source made the active and inactive calls. No cut-off for these calls is given here.

Columns and labels:
Cryptococcus neoformans [1] = experiment: Fungicidal activity against Cryptococcus neoformans H99 assessed as reduction in colony forming units at 8 ug/ml incubated upto 72 hrs by time-kill assay; format: functional; set-up: scale not given: the % may be the effect or the level left; settings: dose 8 µg/ml
Cryptococcus neoformans [2] = experiment: Inhibition of CYP51 in Cryptococcus neoformans H99 assessed as decrease in unknown sterol level at 0.125 ug/ml incubated for 24 hrs by GC-MS analysis (Rvb= 22.95%); settings: dose 0.125 µg/ml
Candida albicans [3] = experiment: Antifungal activity against Candida albicans 0304103 assessed as reduction in fungal growth incubated for 48 hrs by CLSI protocol based microplate reader analysis; format: functional
Cryptococcus neoformans [4] = experiment: In vivo antifungal activity against Cryptococcus neoformans H99 infected in cryptococcal meningitis ICR mouse model assessed as reduction in neuronal necrosis at 1 mg/kg,INH QD for 5 days by H and E staining based microscopic analysis; format: functional, organism-based; settings: time 5.0 day
[5] = Metabolic stability in Sprague-Dawley rat plasma assessed as parent compound remaining at 500 uM and measured upto 120 mins by HPLC analysis; format: ADME, cell-free; settings: 2 h
Cryptococcus neoformans [6] = experiment: Disruption of preformed mature biofilm in Cryptococcus neoformans H99 assessed as removal of mature biofilm at 32 ug/ml incubated for 24 hrs by XTT reduction assay; format: functional; set-up: scale not given: the % may be the effect or the level left; settings: dose 32 µg/ml
Cryptococcus neoformans [7] = experiment: Disruption of preformed mature biofilm in Cryptococcus neoformans H99 assessed as removal of mature biofilm at 0.125 ug/ml incubated for 24 hrs by XTT reduction assay; format: functional; set-up: scale not given: the % may be the effect or the level left; settings: dose 0.125 µg/ml
Cryptococcus neoformans [8] = experiment: In vivo antifungal activity against Cryptococcus neoformans H99 infected in cryptococcal meningitis ICR mouse model assessed as reduction in irregular cavities in brain at 1 mg/kg,INH QD for 5 days by H and E staining based microscopic analysis; format: functional, organism-based; settings: time 5.0 day
Cryptococcus neoformans [9] = experiment: In vivo antifungal activity against Cryptococcus neoformans H99 infected in cryptococcal meningitis ICR mouse model assessed as reduction in blood vessel congestion at 1 mg/kg,INH QD for 5 days by H and E staining based microscopic analysis; format: functional, organism-based; settings: time 5.0 day
Cryptococcus neoformans [10] = experiment: In vivo antifungal activity against Cryptococcus neoformans H99 infected in cryptococcal meningitis ICR mouse model assessed as reduction in fungal burden in lung at 1 mg/kg,INH QD for 5 days by CFU assay; format: functional, organism-based; settings: time 5.0 day
Cryptococcus neoformans [11] = experiment: Inhibition of biofilm formation in Cryptococcus neoformans H99 at 0.25 ug/ml incubated for 24 hrs by XTT reduction assay; format: functional
[12] = Metabolic stability in Sprague-Dawley rat liver microsomes assessed as parent compound remaining at 200 uM and measured upto 120 mins by HPLC analysis; format: ADME, Microsome; settings: 2 h
Cryptococcus neoformans [13] = experiment: Inhibition of CYP51 in Cryptococcus neoformans H99 assessed as increase in lanosterol level at 0.125 ug/ml incubated for 24 hrs by GC-MS analysis (Rvb= 6.24%); settings: dose 0.125 µg/ml
Cryptococcus neoformans [14] = experiment: Fungicidal activity against Cryptococcus neoformans H99 assessed as cell death by measuring red fluorescence at 8 ug/ml incubated for 12 hrs by PI staining based confocal laser scanning microscopy; format: functional, organism-based; settings: dose 8.0 µg/ml
Cryptococcus neoformans [15] = experiment: Antifungal activity against Cryptococcus neoformans H99 assessed as change in internal microstructure by observing cell membrane damage at 0.125 to 4 ug/ml incubated for 8 hrs by TEM analysis; format: functional, organism-based; settings: dose 0.125-4 µg/ml
Cryptococcus neoformans [16] = experiment: Antifungal activity against Cryptococcus neoformans H99 assessed as reduction in urease production at 4 ug/ml by microplate analysis; format: functional, organism-based; settings: dose 4.0 µg/ml
Candida albicans [17] = experiment: Antifungal activity against Candida albicans SC5314 assessed as reduction in fungal growth incubated for 48 hrs by CLSI protocol based microplate reader analysis; format: functional
[18] = Drug metabolism in Cryptococcus neoformans H99 assessed as NO release by measuring green fluorescence at 8 ug/ml incubated for 12 hrs by DAF-FM DA staining based confocal laser scanning microscopy; format: ADME; settings: dose 8 µg/ml
Cryptococcus neoformans [19] = experiment: Antifungal activity against Cryptococcus neoformans H99 assessed as reduction in fungal growth at 0.25 to 8 ug/ml incubated upto 72 hrs by microplate reader analysis; format: functional, organism-based; settings: dose 0.25-8 µg/ml
Cryptococcus neoformans [20] = experiment: Inhibition of CYP51 in Cryptococcus neoformans H99 assessed as reduction in ergosterol level at 0.125 ug/ml incubated for 24 hrs by GC-MS analysis (Rvb= 58.33%); settings: dose 0.125 µg/ml
Cryptococcus neoformans [21] = experiment: Inhibition of biofilm formation in Cryptococcus neoformans H99 at 0.25 ug/ml incubated for 24 hrs in presence of 2-phenyl-4,4,5,5-tetramethylimidazoline-l-oxyl 3-oxide by XTT reduction assay; format: functional, organism-based; settings: dose 0.25 µg/ml
Cryptococcus neoformans [22] = experiment: In vivo antifungal activity against Cryptococcus neoformans H99 infected in cryptococcal meningitis ICR mouse model assessed as reduction in fungal burden in brain at 1 mg/kg,INH QD for 5 days by CFU assay; format: functional, organism-based; settings: time 5.0 day
Cryptococcus neoformans [23] = experiment: Antifungal activity against Cryptococcus neoformans H99 assessed as reduction in melanin production at 16 ug/ml by microplate analysis; format: functional, organism-based; settings: dose 16.0 µg/ml
Cryptococcus neoformans [24] = experiment: Disruption of preformed mature biofilm in Cryptococcus neoformans H99 assessed as removal of mature biofilm at 0.125 to 32 ug/ml incubated for 24 hrs in presence of 2-phenyl-4,4,5,5-tetramethylimidazoline-l-oxyl 3-oxide by XTT reduction assay; format: functional, organism-based; settings: dose 0.125-32 µg/ml
Cryptococcus neoformans [25] = experiment: Antifungal activity against Cryptococcus neoformans H99 assessed as reduction in number of colonies at 0.125 to 1 ug/ml incubated for 72 hrs by agar disk diffusion assay; format: functional; set-up: scale not given: the % may be the effect or the level left; settings: dose 0.125-1 µg/ml, at 0.125 to 1 µg/mL
Cryptococcus neoformans [26] = experiment: In vivo antifungal activity against Cryptococcus neoformans H99 infected in cryptococcal meningitis ICR mouse model assessed as reduction in organism brain invasion at 1 mg/kg,INH QD for 5 days by PAS staining based microscopic analysis; format: functional; settings: time 5.0 day
Cryptococcus neoformans [27] = experiment: Antifungal activity against Cryptococcus neoformans H99 assessed as reduction in fungal growth incubated for 72 hrs by CLSI protocol based microplate reader analysis; format: functional
Cryptococcus neoformans [28] = experiment: Antifungal activity against Cryptococcus neoformans H99 assessed as change in internal microstructure by observing sparse capsule at 0.125 to 4 ug/ml incubated for 8 hrs by TEM analysis; format: functional, organism-based; settings: dose 0.125-4 µg/ml
Cryptococcus neoformans [29] = experiment: Inhibition of CYP51 in Cryptococcus neoformans H99 assessed as increase in other unknown sterol level at 0.125 ug/ml incubated for 24 hrs by GC-MS analysis (Rvb= 12.49%); settings: dose 0.125 µg/ml
Nakaseomyces glabratus = experiment: Antifungal activity against Candida glabrata 10639 assessed as reduction in fungal growth incubated for 48 hrs by CLSI protocol based microplate reader analysis; format: functional
Cryptococcus neoformans [30] = experiment: In vivo antifungal activity against Cryptococcus neoformans H99 infected in cryptococcal meningitis ICR mouse model assessed as reduction in blood vessel congestion at 10 mg/kg,INH QD for 5 days by H and E staining based microscopic analysis; format: functional, organism-based; settings: time 5.0 day
Cryptococcus neoformans [31] = experiment: In vivo antifungal activity against Cryptococcus neoformans H99 infected in cryptococcal meningitis ICR mouse model assessed as reduction in organism brain invasion at 10 mg/kg,INH QD for 5 days by PAS staining based microscopic analysis; format: functional; settings: time 5.0 day
Cryptococcus neoformans [32] = experiment: In vivo antifungal activity against Cryptococcus neoformans H99 infected in cryptococcal meningitis ICR mouse model assessed as reduction in fungal burden in lung at 10 mg/kg,INH QD for 5 days by CFU assay; format: functional, organism-based; settings: time 5.0 day
Cryptococcus neoformans [33] = experiment: In vivo antifungal activity against Cryptococcus neoformans H99 infected in cryptococcal meningitis ICR mouse model assessed as reduction in irregular cavities in brain at 10 mg/kg,INH QD for 5 days by H and E staining based microscopic analysis; format: functional, organism-based; settings: time 5.0 day
Cryptococcus neoformans [34] = experiment: In vivo antifungal activity against Cryptococcus neoformans H99 infected in cryptococcal meningitis ICR mouse model assessed as reduction in neuronal necrosis at 10 mg/kg,INH QD for 5 days by H and E staining based microscopic analysis; format: functional, organism-based; settings: time 5.0 day
Cryptococcus neoformans [35] = experiment: In vivo antifungal activity against Cryptococcus neoformans H99 infected in cryptococcal meningitis ICR mouse model assessed as reduction in fungal burden in brain at 10 mg/kg,INH QD for 5 days by CFU assay; format: functional, organism-based; settings: time 5.0 day

SMILES: CN(Cc1ccc(OCCCOc2ccc(CC(=O)OCCO[N+](=O)[O-])cc2)cc1)CC(O)(Cn1cncn1)c1ccc(F)cc1F (configuration not stated)
- Activity (Cryptococcus neoformans [1]): 100%
- inhibition (Cryptococcus neoformans [2]): 5.31%
- MIC80 (Candida albicans [3]): > 64 µg/mL
- Activity (Cryptococcus neoformans [4]): Active
- Stability [5]: Unstable
- Activity (Cryptococcus neoformans [6]): 50%
- Activity (Cryptococcus neoformans [7]): 25%
- Activity (Cryptococcus neoformans [8]): Active
- Activity (Cryptococcus neoformans [9]): Active
- Activity (Cryptococcus neoformans [10]): Active
- inhibition at 0.25 µg/mL (Cryptococcus neoformans [11]): > 50%
- Stability [12]: Unstable
- inhibition (Cryptococcus neoformans [13]): 44.5%
- Activity (Cryptococcus neoformans [14]): Active
- Activity (Cryptococcus neoformans [15]): Active
- Activity (Cryptococcus neoformans [16]): Active
- MIC80 (Candida albicans [17]): 1 µg/mL (≈ 1.53 µM)
- Drug metabolism [18]: Metabolite_Detected
- Activity (Cryptococcus neoformans [19]): Dose-Dependent Effect
- inhibition (Cryptococcus neoformans [20]): 23.7%
- inhibition (Cryptococcus neoformans [21]): inactive
- Activity (Cryptococcus neoformans [22]): Active
- Activity (Cryptococcus neoformans [23]): Active
- Activity (Cryptococcus neoformans [24]): inactive
- Activity (Cryptococcus neoformans [25]): 100%
- Activity (Cryptococcus neoformans [26]): Active
- MIC80 (Cryptococcus neoformans [27]): 0.125 µg/mL (≈ 0.191 µM)
- Activity (Cryptococcus neoformans [28]): Dose-Dependent Effect
- inhibition (Cryptococcus neoformans [29]): 26.5%
- MIC80 (Nakaseomyces glabratus): 1 µg/mL (≈ 1.53 µM)

SMILES: CN(Cc1ccc(OCCCOc2ccc(CC(=O)NCCO[N+](=O)[O-])cc2)cc1)CC(O)(Cn1cncn1)c1ccc(F)cc1F (configuration not stated)
- MIC80 (Candida albicans [3]): > 64 µg/mL
- Activity (Cryptococcus neoformans [30]): Active
- Stability [5]: Stable
- Stability [12]: Stable
- Activity (Cryptococcus neoformans [31]): Active
- Activity (Cryptococcus neoformans [32]): inactive
- Activity (Cryptococcus neoformans [33]): Active
- Activity (Cryptococcus neoformans [34]): Active
- MIC80 (Candida albicans [17]): 1 µg/mL (≈ 1.53 µM)
- Activity (Cryptococcus neoformans [35]): Active
- MIC80 (Cryptococcus neoformans [27]): 0.125 µg/mL (≈ 0.191 µM)
- MIC80 (Nakaseomyces glabratus): 1 µg/mL (≈ 1.53 µM)
